Tests used:
p38 MAP kinase = molecular target: T1, p38 MAP kinase (Mus musculus, UniProt P47811); assay: p38 MAP kinase Assay (GST-ATF-2 phosphorylation, His-p38 MAP kinase); format: biochemical, murine; conditions: ATP 120 μM; substrate GST-ATF-2; 1 h at 37° C; read-out: IC50 for p38 MAP kinase inhibition
T1 construct: full length murine p38 MAP kinase; His tag; made in house; host or cells: E. coli
Description: The substrate (GST-ATF-2; a fusion protein comprising amino acids 1-109 of ATF-2 and the GST protein obtained by expression in E. coli) is coated onto the wells of microtiter plates (50 μl/well; 1 μg/ml in PBS/0.02% Na azide) overnight at 4° C. The following day, the microtiter plates are washed four times with PBS/0.5% Tween 20/0.02% Na azide and are blocked with PBS/2% BSA/0.02% Na Azide for 1 h at 37° C. Plates are washed again 4 times with PBS/0.5% Tween 20/0.02% Na azide. The kinase cascade reaction is then started by adding the following reactants in 10 μl aliquots to a final reaction volume of 50 μl.
1. Agents of the Invention titrated from 10 to 0.001 μM in 10-fold dilutions or solvent (DMSO) or H2 O.
2. Kinase buffer (5×); pH 7.4; 125 mM Hepes (Stock at 1M; Gibco #15630-056). […]
After 1 h at 37° C. the kinase reaction is terminated by washing the plates four times as previously described. Phosphorylated GST-ATF-2 is then detected by adding: […]
After step 1,2 and 3 the microtiter plates are washed four times with PBS/0.5% Tween 20/0.02% Na azide. After step 4, the plates are read in a Bio-Rad microplate reader in a dual wavelength mode (measurement filter 405 nm and reference filter 490 nm). The background value (without ATP) is subtracted and IC50 values are calculated using the Origin computer program (4 parameter logistic function).

TNF-α = assay: Assay for Inhibition of TNF-α Production in LPS Stimulated Mice; format: in vivo; conditions: LPS 20 mg/kg i.v.; OF1 mice (female); plasma TNF 1 hour after LPS
Description: Assay for Inhibition of TNF-α Production in LPS Stimulated Mice
Injection of lipopolysaccharide (LPS) induces a rapid release of soluble tumour necrosis factor (TNF-α) into the periphery. This model is be used to analyse prospective blockers of TNF release in vivo.
LPS (20 mg/kg) is injected i.v. into OF1 mice (female, 8 week old). One (1) hour later blood is withdrawn from the animals and TNF levels are analysed in the plasma by an ELISA method using an antibody to TNF-α. […] Compounds to be evaluated are given either orally or s.c. 1 to 4 hours prior to the LPS injection. Inhibition of LPS-induced TNF-release is taken as the readout.

[1] = test system: TNF-α release from hPBMCs; assay: Assay for Inhibition of TNF-α release from hPBMCs; format: cell-based; conditions: Homo sapiens, 3 h, IFNg (100 U/ml) and LPS, three hours, TNF-α by ELISA, read-out: IC50, suppression of TNF release
Description: Human peripheral blood mononuclear cells (hPBMCs) are prepared from the peripheral blood of healthy volunteers using ficoll-hypaque density separation accordinc to the method of Hansel et al., J. Imm. […] Cells are incubated with serial dilutions of the test compounds for 30 minutes at 37° C. prior to the addition of IFNg (100 U/ml) and LPS (5 mg/ml) and subsequently further incubated for three hours. Incubation is terminated by centrifugation at 1400 RPM for 10 min. TNF-α in the supernatant is measured using a commercial ELISA (Innotest hTNFa, available from Innogenetics N.V., Zwijnaarde, Belium). Agents of the Invention are tested at concentrations of from 0 to 10 mM.

T1 sequence (P47811 whole entry): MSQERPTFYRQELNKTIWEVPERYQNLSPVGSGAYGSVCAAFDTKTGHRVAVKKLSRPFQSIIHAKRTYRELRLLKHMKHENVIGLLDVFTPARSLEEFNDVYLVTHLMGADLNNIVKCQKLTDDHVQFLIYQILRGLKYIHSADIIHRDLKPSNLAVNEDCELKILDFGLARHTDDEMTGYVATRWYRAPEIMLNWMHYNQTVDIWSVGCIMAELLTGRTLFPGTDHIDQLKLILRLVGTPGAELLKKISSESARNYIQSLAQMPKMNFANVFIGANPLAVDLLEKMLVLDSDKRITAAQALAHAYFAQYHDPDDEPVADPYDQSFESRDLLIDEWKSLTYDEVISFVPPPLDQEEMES

IC50 (p38 MAP kinase): ~0.01 µM | IC50 [1]: ~0.09 µM
Compound: Nc1nc(N)c(F)c(-c2nc(-c3ccc(F)cc3)c(-c3ccncc3)[nH]2)c1F [Example 17, 4-(4-Fluorophenyl)-5-(4-pyridyl) 2-(2,6-diamino-3,5-difluoropyridinyl)imidazole]
inhibition of TNF production (TNF-α): about 80%

— patent publication US6300347A, “2-substituted 4,5-diaryl imidazoles” (Novartis AG, priority 1997, dated 2001)
